According to the supplement of paper PMC10949913:

Experiments:
Settings in all cases: 48 h
CU-ACC2 [1] = assay: AC50 viability; higher = less potent
Method in brief: (§1)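 Concentration-response curves were fitted to obtain AC50 and area under the curve, keeping inhibitory or non-responding curve classes only. Data came from CellTiter-Glo luminescence, normalised per plate to vehicle and empty-well controls, in three adrenocortical carcinoma cell lines. These were treated in 1,536-well plates with library compounds at 11 concentrations and read after 48 h.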

NCI-H295R [2] = assay: AC50 viability; higher = less potent
Method in brief: as §1

CU-ACC2 [3] = assay: area under concentration-response curve (viability) (AUC (a.u.)); higher = less active
Method in brief: as §1

NCI-H295R [4] = assay: as above
Method in brief: as §1

CU-ACC1 = assay: as above
Method in brief: as §1

| Compound | AC50 viability (CU-ACC2 [1]) | AC50 viability (NCI-H295R [2]) | area under concentration-response curve (CU-ACC2 [3]) | area under concentration-response curve (NCI-H295R [4]) | area under concentration-response curve (CU-ACC1) |
| --- | --- | --- | --- | --- | --- |
| CCC[C@H](Nc1nc(-c2ccc(NC(=O)NCC)c(OC)c2)ncc1C)c1cccnc1 | 0.372 µM | 1.32 µM | 338 | 333 |  |
| COc1ccc(-c2cc3nccn3c(Nc3ncccc3C(N)=O)n2)cc1OC | 6.61 µM |  | 415 | 427 | 436 |
| CN(C)C(=O)c1cc2cnc(Nc3ccc(N4CCNCC4)cn3)nc2n1C1CCCC1 | 33.2 µM |  | 439 | 474 | 434 |
| C=CC(=O)N1CCC[C@H](n2c(=O)n(-c3ccc(Oc4ccccc4)cc3)c3c(N)ncnc32)C1 | 20.9 µM |  | 410 | 410 | 352 |
| CC1(C)CNc2cc(NC(=O)c3cccnc3NCc3ccncc3)ccc21 | 0.263 µM |  | 317 | 373 | 379 |
| CC(C)(C)C(=O)Oc1ccc([S+](=O)([O-])Nc2ccccc2C(=O)NCC(=O)O)cc1 | 0.105 µM |  | 313 | 348 | 318 |
| CN[C@@H](C)C(=O)N[C@H](C(=O)N1CCC[C@H]1C(=O)Nc1snnc1-c1ccccc1)C1CCCCC1 | 1.66 µM |  | 405 | 401 | 413 |
| CN(C1=CC=CC=C1)C(=O)C/2=C(O)/C3=C(C=CC=C3)N(C)C2=O | 37.2 µM |  | 399 | 317 | 344 |
| Nc1nc(Nc2ccc3c(c2)CC[C@@H](N2CCCC2)CC3)nn1-c1cc2c(nn1)-c1ccccc1CCC2 | 23.5 µM | 23.5 µM | 534 | 441 |  |
| O=C(NCc1ccccc1)c1csc(Nc2ccncn2)n1 | 18.6 µM | 23.5 µM | 501 | 482 |  |
| C[C@]1(O)CC(C1)C2=NC(=C3[N]2C=CN=C3N)C4=CC5=C(C=C4)C=CC(=N5)C6=CC=CC=C6 (stereo not given) | 18.6 µM |  | 411 | 373 |  |
| CC1=N[NH]C=C1C2=CC\3=C(S2)C(=O)NC(=N3)\[C@@H]4CC5CCN4CC5 | 10.5 µM | 23.5 µM | 476 | 529 |  |
| O=C(Nc1ccc2[nH]nc(-c3ccncc3)c2c1)[C@@H]1CCN(CC(=O)N2CCN(c3ccc(-c4ncccn4)cc3)CC2)C1 | 11.8 µM |  | 476 | 482 | 444 |
| Cc1cc2c(cc1CC(=O)c1sccc1[S+](=O)([O-])Nc1onc(C)c1Cl)OCO2 | 0.105 µM | 0.00417 µM | 242 | 127 |  |
| COC1=CC(=C2C(=O)N(COC/3=C/C(=O)N4\C=C/C=C(OCCN5CCCCC5)\C4=N3)[S+]([O-])(=O)C2=C1)C(C)C | 20.9 µM | 37.2 µM | 584 | 541 |  |
| CN(C)C1=CC=C(C=C1)C(C2=CC=C(C=C2)N(C)C)=C/3\C=C/C(/C=C3)=[N+](C)C | 4.17 µM | 4.17 µM |  |  |  |
| CC(C)N(CCC(=O)c1ccc2ccccc2c1)Cc1ccccc1 | 20.9 µM |  | 609 | 603 | 557 |
| CC(C)OC(=O)[C@H](C)N[P@](=O)(OC[C@H]1O[C@@H](N2\C=C/C(=O)NC2=O)[C@](C)(F)[C@@H]1O)OC3=CC=CC=C3 | 5.9 µM |  | 414 | 386 | 388 |
| C/C(=N\NC(=S)N1CCC1)c1ccccn1 | 0.417 µM |  | 453 | 396 | 292 |
| CC(C)(C)c1cc(NC(=O)Nc2ccc(-c3cn4c(n3)sc3cc(OCCN5CCOCC5)ccc34)cc2)no1 | 3.72 µM |  | 539 | 511 | 489 |
| COc1cc2c(Nc3ccc(NC(=O)c4ccccc4)cc3)ncnc2cc1OCCCN1CCOCC1 | 20.9 µM | 18.6 µM | 566 | 505 |  |

| Compound | AC50 viability (CU-ACC2 [1]) | AC50 viability (NCI-H295R [2]) | area under concentration-response curve (CU-ACC2 [3]) | area under concentration-response curve (NCI-H295R [4]) | area under concentration-response curve (CU-ACC1) |
| --- | --- | --- | --- | --- | --- |
| CC(C)c1cccc(C(C)C)c1O | 14.8 µM |  | 400 | 415 | 362 |
| N#Cc1ccnc(Nc2cc(C3CCN(C4COC4)CC3)cc(N3CCC(F)(F)C3)n2)c1 | 1.66 µM |  | 467 | 471 | 458 |
| C[C@@H](Oc1cc(-c2cnn(C3CCNCC3)c2)cnc1N)c1c(Cl)ccc(F)c1Cl | 16.6 µM | 3.72 µM | 407 | 353 |  |
| c1cc(CN2CCCNCCNCCCNCC2)ccc1CN1CCCNCCNCCCNCC1 | 0.0934 µM |  | 337 | 294 | 336 |
| O=C(Nc1cccc(Cl)c1)Nc1ncc(CCNc2ncnc3ccsc23)s1 | 9.34 µM | 33.2 µM | 481 | 342 |  |
| O=C(NCc1ccc([S+](=O)([O-])c2cccc(C(F)(F)F)c2)cc1)c1cnc2[nH]ncc2c1 | 0.0186 µM |  | 362 | 407 | 347 |
| COC(=O)Nc1nc2cc(Sc3ccccc3)ccc2[nH]1 | 5.25 µM |  | 393 | 431 | 368 |
| c1ccc(-c2cc(CCC3CCNCC3)c3ccccc3n2)cc1 | 23.5 µM | 20.9 µM | 561 | 469 |  |
| CCN(CC)CCOc1ccc(/C(=C(\Cl)c2ccccc2)c2ccccc2)cc1 | 10.5 µM |  | 203 | 131 |  |
| CC(C)(C)OC(=O)CN(Cc1ccc(Cl)cc1)Cc1ccc([N+](=O)[O-])s1 | 37.2 µM |  | 479 | 405 | 410 |
| CC(C)Oc1cc(Nc2nc(N[C@@H](C)c3ccc(F)cn3)ncc2Cl)n[nH]1 | 1.32 µM |  | 394 | 353 | 325 |
| CCOc1cc(N2CCC(O)CC2)ccc1Nc1ncc2c(n1)N(C)c1ccccc1C(=O)N2C | 20.9 µM |  | 525 | 479 | 450 |
| CCn1cc(-c2ccnc3[nH]c(-c4cccc(CN(C)C)c4)cc23)c(-c2ccc(NC(=O)N(C)C)cc2)n1 | 18.6 µM | 18.6 µM | 578 | 514 |  |
| Cc1cc(OCc2nnc(SC3CCCC3)n2-c2cccnc2)ccc1-c1ccc([S+](C)(=O)[O-])cc1 | 2.35 µM |  | 324 | 362 | 271 |
| O=C(NCCCNc1nc(Nc2cccc(CN3CCOCC3)c2)ncc1C1CC1)C1CCC1 | 33.2 µM |  | 452 | 220 |  |
| FC(F)(F)c1ccc(Nc2nc(-c3c(C(F)(F)F)nc4ccccn34)cs2)cc1 | 20.9 µM | 5.25 µM | 529 | 413 |  |
| CCC1=C2CN3C(=O)\C4=C(/C=C3/C2=NC5=CC=C(O)C=C15)[C@@](O)(CC)C(=O)OC4 | 0.468 µM |  | 447 | 524 | 401 |
| Cc1ccc(Nc2ncc3c(n2)N(C)C(=O)N(c2cc(NC(=O)c4cccc(C(F)(F)F)c4)ccc2C)C3)cn1 | 5.25 µM |  | 504 | 532 | 501 |
| COc1ccc(-c2c(-c3ccc(O)cc3O)n[nH]c2C)cc1 | 0.105 µM | 0.00296 µM | 224 | 71.5 |  |
| Nc1ncnc2c1c(-c1cccc(OCc3ccccc3)c1)cn2[C@H]1C[C@H](CN2CCCC2)C1 | 14.8 µM | 18.6 µM | 444 | 358 |  |
| Nc1ccc(C(=O)Nc2cccc(-c3nc(N4CCOCC4)c4oc5ncccc5c4n3)c2)cn1 | 1.48 µM |  | 414 | 396 | 434 |

| Compound | AC50 viability (CU-ACC2 [1]) | AC50 viability (NCI-H295R [2]) | area under concentration-response curve (CU-ACC2 [3]) | area under concentration-response curve (NCI-H295R [4]) | area under concentration-response curve (CU-ACC1) |
| --- | --- | --- | --- | --- | --- |
| Cn1ncc(NC(=O)c2nc(-c3c(F)cccc3F)sc2N)c1N1CC[C@@H](N)[C@H](F)CC1 | 18.6 µM |  | 500 | 516 | 525 |
| NC(=O)c1ccc2[nH]ccc2c1 | 0.59 µM |  | 360 | 395 | 345 |
| C[N]1C=NC=C1[C@@](N)(C2=CC=C(Cl)C=C2)C3=CC=C4N(C)C(=O)\C=C(\C5=CC=CC(=C5)Cl)C4=C3 | 0.372 µM | 0.00105 µM | 94.9 | 88.8 |  |
| Cc1cc(C(=O)Nc2cc(Nc3ccc4c(/C=C/c5ccccn5)[nH]nc4c3)ccc2F)n(C)n1 | 23.5 µM | 23.5 µM | 572 | 525 |  |
| CNC(=O)c1nn(C)c2c1C(C)(C)Cc1cnc(Nc3ccc(N4CCN(C)CC4)cc3)nc1-2 | 7.42 µM | 18.6 µM | 483 | 473 |  |
| C=CC(=O)Nc1cccc(Nc2nc(Nc3ccc(OCCOC)cc3)ncc2F)c1 | 20.9 µM |  | 597 | 545 |  |
| O=C(O)c1ccc2cc(-c3ccc(O)c(C45CC6CC(CC(C6)C4)C5)c3)ccc2c1 | 5.25 µM | 3.72 µM | 452 | 474 |  |
| CC(C)COCC(CN(Cc1ccccc1)c1ccccc1)N1CCCC1 (stereo not given) | 26.3 µM | 23.5 µM | 583 | 536 |  |
| CN(C)c1ccc2cc(C(=O)N[C@@H](CCCNC(=N)CCl)C(=O)NCc3ccccc3)ccc2c1 | 0.118 µM | 11.8 µM | 276 | 247 |  |
| CC(C)(N)c1ccc(-c2nc3ccccc3nc2-c2ccccc2)cc1 | 0.372 µM |  | 297 | 354 | 336 |
| N[S+](=O)([O-])c1ccc(Cc2c(-c3cccc(-c4ccccc4)c3)nn(-c3nc(C(=O)O)cs3)c2CC2CC2)cc1 | 5.9 µM |  | 388 | 405 | 373 |
| CCOc1cc2ncc(C#N)c(Nc3ccc(OCc4ccccn4)c(Cl)c3)c2cc1NC(=O)/C=C/CN(C)C | 16.6 µM |  | 572 | 543 | 562 |
| COc1cc(OC)c(NC(=O)Nc2cc(C)on2)cc1Cl | 23.5 µM |  | 484 | 432 | 408 |
| COc1cc2nc(-c3cc(F)ccc3O)nc(N[C@@H]3CNC[C@H]3C(C)(C)O)c2cc1OC | 4.17 µM | 3.72 µM | 430 | 412 |  |
| CC1(C)SCCN([S+](=O)([O-])c2ccc(OCC#CCO)cc2)[C@H]1C(=O)NO | 2.95 µM |  | 437 | 421 | 446 |
| C=C1C[C@@H]2CC[C@@]34C[C@H]5O[C@H]6[C@@H](O3)[C@H]3O[C@H](CC[C@@H]3O[C@H]6[C@H]5O4)CC(=O)C[C@@H]3[C@@H](OC)[C@@H](C[C@H](O)CN)O[C@H]3C[C@H]3O[C@@H](CC[C@@H]1O2)C[C@@H](C)C3=C | 3.4 µM | 0.00959 µM | 461 | 436 |  |
| CCN(CC)C(=S)SSC(=S)N(CC)CC | 14.8 µM |  | 465 | 472 | 366 |
| O=C(Nc1cccc(Nc2ncc(Br)c(NCCc3cnc[nH]3)n2)c1)N1CCCC1 | 16.6 µM | 23.5 µM | 418 | 397 |  |
| Cn1cc(/C=C2\C(=O)Nc3cccnc32)c2ccccc21 | 0.105 µM |  | 320 | 373 | 349 |
| CC(C)[C@H](CO)Nc1nc(Nc2cccc(Cl)c2)c2ncn(C(C)C)c2n1 | 29.5 µM |  | 591 |  | 551 |
| CC(/C=C/C(=O)NO)=C\[C@@H](C)C(=O)c1ccc(N(C)C)cc1 | 1.05 µM |  | 463 | 487 | 417 |
